Values of other authors, collected in patent publication EP0404807B1, “DEPRENYL FOR SYSTEMIC TRANSDERMAL ADMINISTRATION” (SOMERSET PHARMACEUTICALS, INC., priority 1988, dated 1989).

Details: deprenyl alone, as stated in EP 0241809 A

C#CCN(C)C(C)Cc1ccccc1 (stereo not shown) [deprenyl, N-methyl-N-(1-phenyl-2-propyl)-2-propinylamine]
anti-Parkinsonism action: almost no anti-Parkinsonism action
